This note sets out measurements from ChEMBL document CHEMBL1255478, “Characterization of CSP-1, a novel extended-spectrum beta-lactamase produced by a clinical isolate of Capnocytophaga sputigena” (2010).

Values after ≈ are worked out from the molar mass of the structure shown.

Holding throughout (assay type): functional
Assay [1] concerns Capnocytophaga sputigena. As to the kind of experiment: Antimicrobial activity against Capnocytophaga sputigena isolate NOR after 2 days by agar dilution method. As to conditions: 48 h. On the technique in general: Agar dilution tests growth on a series of plates holding different concentrations.
In assay [2] the test system is Escherichia coli. Briefly: Antimicrobial activity against Escherichia coli TOP10(pNOR-1) expressing CSP-1 gene after 2 days by agar dilution method. As to conditions: 48 h.
Assay [3] relates to Capnocytophaga sputigena. Briefly: Antimicrobial activity against Capnocytophaga sputigena CRBIP 17.39 after 2 days by agar dilution method. Particulars: CRBIP 17.39, 48 h.
Assay [4] concerns Capnocytophaga sputigena. Briefly: Antimicrobial activity against Capnocytophaga sputigena CIP 104301T after 2 days by agar dilution method. As to conditions: 48 h.
Assay [5] relates to Escherichia coli. As to the kind of experiment: Antimicrobial activity against Escherichia coli TOP10 after 2 days by agar dilution method. As to conditions: TOP10, 48 h.

For orientation: MIC means the lowest concentration found to suppress growth. In the case of `CC1(C)S[C@@H]2[C@H](NC(=O)[C@H](N)c3ccc(O)cc3)C(=O)N2[C@H]1C(=O)O` [AMOXICILLIN], the MIC in assay [1] was 256 µg/mL (≈ 701 µM); in assay [2], > 512 µg/mL; in assay [3], 0.25 µg/mL (≈ 0.684 µM); in assay [4] it was 0.25 µg/mL (≈ 0.684 µM); in assay [5], 2 µg/mL (≈ 5.47 µM).

Regarding `C[C@H]1[C@H](NC(=O)/C(=N\OC(C)(C)C(=O)O)c2csc(N)n2)C(=O)N1S(=O)(=O)O` [AZTREONAM], the MIC in assay [1] is 0.125 µg/mL (≈ 0.287 µM); in assay [2] it was 16 µg/mL (≈ 36.7 µM); in assay [3], 0.125 µg/mL (≈ 0.287 µM); in assay [4], 0.125 µg/mL (≈ 0.287 µM).

On to `CO/N=C(\C(=O)N[C@@H]1C(=O)N2C(C(=O)[O-])=C(C[N+]3(C)CCCC3)CS[C@H]12)c1csc(N)n1` [CEFEPIME], for which the MIC in assay [1] is 0.125 µg/mL (≈ 0.26 µM); in assay [2], 4 µg/mL (≈ 8.32 µM); in assay [3], < 0.06 µg/mL; in assay [4], < 0.06 µg/mL.

In the case of `CO/N=C(\C(=O)N[C@@H]1C(=O)N2C(C(=O)O)=C(COC(C)=O)CS[C@H]12)c1csc(N)n1` [CEFOTAXIME], the MIC in assay [1] was 0.25 µg/mL (≈ 0.549 µM); in assay [2], 8 µg/mL (≈ 17.6 µM); in assay [3], < 0.06 µg/mL; in assay [4] it was < 0.06 µg/mL; in assay [5] it was < 0.06 µg/mL.

In the case of `CO[C@@]1(NC(=O)Cc2cccs2)C(=O)N2C(C(=O)O)=C(COC(N)=O)CS[C@@H]21` [CEFOXITIN], the MIC in assay [1] was 0.5 µg/mL (≈ 1.17 µM); in assay [2] it was 2 µg/mL (≈ 4.68 µM); in assay [3], 0.5 µg/mL (≈ 1.17 µM); in assay [4], 0.5 µg/mL (≈ 1.17 µM); in assay [5], 2 µg/mL (≈ 4.68 µM).

Regarding `CC(C)(O/N=C(\C(=O)N[C@@H]1C(=O)N2C(C(=O)[O-])=C(C[n+]3ccccc3)CS[C@H]12)c1csc(N)n1)C(=O)O` [CEFTAZIDIME], the MIC in assay [1] was 4 µg/mL (≈ 7.32 µM); in assay [2] it was 0.5 µg/mL (≈ 0.915 µM); in assay [3], < 0.06 µg/mL; in assay [4] it was < 0.06 µg/mL; in assay [5], < 0.06 µg/mL.

Take `CO/N=C(\C(=O)N[C@@H]1C(=O)N2C(C(=O)O)=C(COC(N)=O)CS[C@H]12)c1ccco1` [CEFUROXIME]: the MIC amounted to 64 µg/mL (≈ 151 µM) in assay [1]; 256 µg/mL (≈ 603 µM) in assay [2]; 0.5 µg/mL (≈ 1.18 µM) in assay [3]; 0.5 µg/mL (≈ 1.18 µM) in assay [4]; 0.5 µg/mL (≈ 1.18 µM) in assay [5].

Take `CC(=O)OCC1=C(C(=O)O)N2C(=O)[C@@H](NC(=O)Cc3cccs3)[C@H]2SC1` [CEPHALOTHIN]: the MIC is 64 µg/mL (≈ 161 µM) in assay [1]; > 512 µg/mL in assay [2]; 0.125 µg/mL (≈ 0.315 µM) in assay [3]; 0.25 µg/mL (≈ 0.631 µM) in assay [4]; 4 µg/mL (≈ 10.1 µM) in assay [5].

On to `C[C@@H](O)[C@H]1C(=O)N2C(C(=O)O)=C(SCCNC=N)C[C@H]12` [IMIPENEM ANHYDROUS], for which the MIC in assay [1], in assay [2], in assay [3] and in assay [4] was 0.06 µg/mL (≈ 0.2 µM) each time.

With `CCN1CCN(C(=O)N[C@@H](C(=O)N[C@@H]2C(=O)N3[C@@H]2SC(C)(C)[C@@H]3C(=O)O)c2ccccc2)C(=O)C1=O` [PIPERACILLIN], the MIC in assay [1] was determined as 0.5 µg/mL (≈ 0.966 µM); in assay [2] it was 16 µg/mL (≈ 30.9 µM); in assay [3], 0.25 µg/mL (≈ 0.483 µM); in assay [4] it was 0.25 µg/mL (≈ 0.483 µM); in assay [5], 1 µg/mL (≈ 1.93 µM).

As to `CC1(C)S[C@@H]2[C@H](NC(=O)[C@H](C(=O)O)c3ccsc3)C(=O)N2[C@H]1C(=O)O` [TICARCILLIN], the MIC is 4 µg/mL (≈ 10.4 µM) in assay [1]; > 512 µg/mL in assay [2]; 0.25 µg/mL (≈ 0.65 µM) in assay [3]; 0.25 µg/mL (≈ 0.65 µM) in assay [4]; 1 µg/mL (≈ 2.6 µM) in assay [5].
